According to US20230085307A1, “PYRIDAZINONE COMPOUND AND HERBICIDE” (NISSAN CHEMICAL CORPORATION, priority 2019, published 2023):

How the values were obtained:
[1] = system: wild oat; test: Test Example 5: herbicidal effect by foliage application, plastic box (Table 20, symbol I); type: in vivo, wild oat (Avena fatua); conditions: foliage application, 320 g/ha, three weeks after application
Procedure, shortened: (§1)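 Plants were sown into sterilized diluvial soil under about 1.5 cm cover and kept in a greenhouse at 25° C. to 30° C. Fourteen days on, foliage received an even spray of the diluted emulsion. Herbicidal or crop effect was judged three weeks afterwards.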

[2] = system: late watergrass; test: Test Example 1: herbicidal activity, application before weed generation under submerged conditions (Table 16, symbol A); type: in vivo, late watergrass (Echinochloa oryzicola); conditions: 320 g/ha applied herbicide
Procedure, shortened: (§2)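 Submerged Wagner pots (alluvial soil, 4 cm water) sown with weed seeds and planted with 2.5-leaf rice seedlings; emulsifiable concentrate diluted in water applied to water surface on sowing day. Held in greenhouse at 25-30 °C; injury scored 0-5 by herbicidal rate after three weeks.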

[3] = system: barnyard grass; test: Test Example 3: herbicidal effect by foliage application, Wagner pot (Table 18, symbol H); type: in vivo, barnyard grass (Echinochloa crus-galli); conditions: 320 g/ha
Procedure, shortened: (§3)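 Plants were sown in alluvial soil held under 0.1–0.5 cm standing water and grown 14 days in a greenhouse at 25–30 °C. An emulsifiable formulation, water-diluted to the set dose, was then sprayed onto the foliage, and effects were scored three weeks later using previously defined criteria.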

[4] = system: southern crabgrass; test: Test Example 5: herbicidal effect by foliage application, plastic box (Table 20, symbol F); type: in vivo, southern crabgrass (Digitaria ciliaris); conditions: foliage application, 320 g/ha, three weeks after application
Procedure, shortened: as §1

[5] = system: rice flat sedge; test: Test Example 3: herbicidal effect by foliage application, Wagner pot (Table 18, symbol E); type: in vivo, rice flat sedge (Cyperus iria); conditions: 320 g/ha
Procedure, shortened: as §3

[6] = system: oval-leafed pondweed; test: Test Example 1: herbicidal activity, application before weed generation under submerged conditions (Table 16, symbol C); type: in vivo, oval-leafed pondweed (Monochoria vaginalis); conditions: 320 g/ha applied herbicide
Procedure, shortened: as §2

[7] = system: persian speedwell; test: Test Example 5: herbicidal effect by foliage application, plastic box (Table 20, symbol R); type: in vivo, Persian speedwell (Veronica persica); conditions: foliage application, 320 g/ha, three weeks after application
Procedure, shortened: as §1

[8] = system: Japanese bulrush; test: Test Example 2: herbicidal activity, application during weed generation under submerged conditions (Table 17, symbol B); type: in vivo, Japanese bulrush (Schoenoplectus juncoides); conditions: AAH 320 g/ha; application during weed generation, submerged conditions
Procedure, shortened: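 Effect on each weed is rated three weeks post-treatment, using the same scoring criteria as the preceding test. Plants grow from mixed-sown seed in flooded alluvial soil (4 cm water) at 25° C. to 30° C., and are treated at one to two leaves with diluted emulsion dropped onto the water.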

[9] = system: redroot pigweed; test: Test Example 4: herbicidal effect by soil treatment (Table 19, symbol N); type: in vivo, redroot pigweed (Amaranthus retroflexus); conditions: amount of applied herbicide 320 g/ha
Procedure, shortened: (§4)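 In this soil treatment, the formulated compound reached the seeds only through the soil: seeds were buried about 1.5 cm deep in sterilized diluvial soil, then the diluted emulsion was sprayed over the surface. After three weeks at 25° C. to 30° C. in a greenhouse, effects were graded on criteria from an earlier test.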

[10] = system: chickweed; test: Test Example 4: herbicidal effect by soil treatment (Table 19, symbol P); type: in vivo, common chickweed (Stellaria media); conditions: amount of applied herbicide 320 g/ha
Procedure, shortened: as §4

[11] = system: velvetleaf; test: Test Example 4: herbicidal effect by soil treatment (Table 19, symbol M); type: in vivo, velvetleaf (Abutilon theophrasti); conditions: amount of applied herbicide 320 g/ha
Procedure, shortened: as §4

[12] = system: barnyard grass; test: Test Example 5: herbicidal effect by foliage application, plastic box (Table 20, symbol H); type: in vivo, barnyard grass (Echinochloa crus-galli); conditions: foliage application, 320 g/ha, three weeks after application
Procedure, shortened: as §1

[13] = system: green foxtail; test: Test Example 4: herbicidal effect by soil treatment (Table 19, symbol G); type: in vivo, green foxtail (Setaria viridis); conditions: amount of applied herbicide 320 g/ha
Procedure, shortened: as §4

[14] = system: persian speedwell; test: Test Example 4: herbicidal effect by soil treatment (Table 19, symbol R); type: in vivo, Persian speedwell (Veronica persica); conditions: amount of applied herbicide 320 g/ha
Procedure, shortened: as §4

[15] = system: blackgrass; test: Test Example 5: herbicidal effect by foliage application, plastic box (Table 20, symbol J); type: in vivo, blackgrass (Alopecurus myosuroides); conditions: foliage application, 320 g/ha, three weeks after application
Procedure, shortened: as §1

[16] = system: barnyard grass; test: Test Example 4: herbicidal effect by soil treatment (Table 19, symbol H); type: in vivo, barnyard grass (Echinochloa crus-galli); conditions: amount of applied herbicide 320 g/ha
Procedure, shortened: as §4

## CCCCCOc1ccc(-c2sc3ccccc3c2-c2c(O)c(C)nn(C)c2=O)cc1 [1-026]
[1]
  herbicidal effect grade, I: wild oat: 2 (Herbicidal rate of 20% or more and less than 40%)
[2]
  Herbicidal effect on A: late watergrass (grade 0-5): 1 (Herbicidal rate of 5% or more and less than 20%)
[3]
  herbicidal effect on H (barnyard grass), rating 0-5: 4 (Herbicidal rate of 70% or more and less than 90%)
[4]
  herbicidal effect grade, F: southern crabgrass: 4 (Herbicidal rate of 70% or more and less than 90%)
[5]
  herbicidal effect on E (rice flat sedge), rating 0-5: 4 (Herbicidal rate of 70% or more and less than 90%)
[6]
  Herbicidal effect on C: oval-leafed pondweed (grade 0-5): 1 (Herbicidal rate of 5% or more and less than 20%)
[7]
  herbicidal effect grade, R: persian speedwell: 5 (Herbicidal rate of 90% or more (almost completely withered))
[8]
  herbicidal effect rating, B: Japanese bulrush: 3 (Herbicidal rate of 40% or more and less than 70%)
[9]
  herbicidal effect rating, N: redroot pigweed: 5 (Herbicidal rate of 90% or more (almost completely withered))
[10]
  herbicidal effect rating, P: chickweed: 2 (Herbicidal rate of 20% or more and less than 40%)
[11]
  herbicidal effect rating, M: velvetleaf: 0 (Herbicidal rate of 5% or less (almost no effect))
[12]
  herbicidal effect grade, H: barnyard grass: 3 (Herbicidal rate of 40% or more and less than 70%)
[13]
  herbicidal effect rating, G: green foxtail: 0 (Herbicidal rate of 5% or less (almost no effect))
[14]
  herbicidal effect rating, R: persian speedwell: 3 (Herbicidal rate of 40% or more and less than 70%)
[15]
  herbicidal effect grade, J: blackgrass: 4 (Herbicidal rate of 70% or more and less than 90%)
[16]
  herbicidal effect rating, H: barnyard grass: 0 (Herbicidal rate of 5% or less (almost no effect))

## Cc1nn(C)c(=O)c(-c2c(-c3ccccc3OC(F)(F)F)sc3ccccc23)c1O [1-030]
[1]
  herbicidal effect grade, I: wild oat: 4 (Herbicidal rate of 70% or more and less than 90%)
[2]
  Herbicidal effect on A: late watergrass (grade 0-5): 2 (Herbicidal rate of 20% or more and less than 40%)
[3]
  herbicidal effect on H (barnyard grass), rating 0-5: 5 (Herbicidal rate of 90% or more (almost completely withered))
[4]
  herbicidal effect grade, F: southern crabgrass: 5 (Herbicidal rate of 90% or more (almost completely withered))
[5]
  herbicidal effect on E (rice flat sedge), rating 0-5: 4 (Herbicidal rate of 70% or more and less than 90%)
[6]
  Herbicidal effect on C: oval-leafed pondweed (grade 0-5): 4 (Herbicidal rate of 70% or more and less than 90%)
[7]
  herbicidal effect grade, R: persian speedwell: 5 (Herbicidal rate of 90% or more (almost completely withered))
[8]
  herbicidal effect rating, B: Japanese bulrush: 3 (Herbicidal rate of 40% or more and less than 70%)
[9]
  herbicidal effect rating, N: redroot pigweed: 5 (Herbicidal rate of 90% or more (almost completely withered))
[10]
  herbicidal effect rating, P: chickweed: 5 (Herbicidal rate of 90% or more (almost completely withered))
[11]
  herbicidal effect rating, M: velvetleaf: 3 (Herbicidal rate of 40% or more and less than 70%)
[12]
  herbicidal effect grade, H: barnyard grass: 4 (Herbicidal rate of 70% or more and less than 90%)
[13]
  herbicidal effect rating, G: green foxtail: 4 (Herbicidal rate of 70% or more and less than 90%)
[14]
  herbicidal effect rating, R: persian speedwell: 5 (Herbicidal rate of 90% or more (almost completely withered))
[15]
  herbicidal effect grade, J: blackgrass: 5 (Herbicidal rate of 90% or more (almost completely withered))
[16]
  herbicidal effect rating, H: barnyard grass: 4 (Herbicidal rate of 70% or more and less than 90%)

## CCCC(=O)Oc1c(C)nn(C)c(=O)c1-c1c(-c2ccc(C(C)=NOC)cc2)sc2ccccc12 [1-044]
[1]
  herbicidal effect grade, I: wild oat: 4 (Herbicidal rate of 70% or more and less than 90%)
[2]
  Herbicidal effect on A: late watergrass (grade 0-5): 5 (Herbicidal rate of 90% or more (almost completely withered))
[3]
  herbicidal effect on H (barnyard grass), rating 0-5: 4 (Herbicidal rate of 70% or more and less than 90%)
[4]
  herbicidal effect grade, F: southern crabgrass: 4 (Herbicidal rate of 70% or more and less than 90%)
[5]
  herbicidal effect on E (rice flat sedge), rating 0-5: 5 (Herbicidal rate of 90% or more (almost completely withered))
[6]
  Herbicidal effect on C: oval-leafed pondweed (grade 0-5): 5 (Herbicidal rate of 90% or more (almost completely withered))
[7]
  herbicidal effect grade, R: persian speedwell: 5 (Herbicidal rate of 90% or more (almost completely withered))
[8]
  herbicidal effect rating, B: Japanese bulrush: 3 (Herbicidal rate of 40% or more and less than 70%)
[9]
  herbicidal effect rating, N: redroot pigweed: 4 (Herbicidal rate of 70% or more and less than 90%)
[10]
  herbicidal effect rating, P: chickweed: 5 (Herbicidal rate of 90% or more (almost completely withered))
[11]
  herbicidal effect rating, M: velvetleaf: 0 (Herbicidal rate of 5% or less (almost no effect))
[12]
  herbicidal effect grade, H: barnyard grass: 3 (Herbicidal rate of 40% or more and less than 70%)
[13]
  herbicidal effect rating, G: green foxtail: 4 (Herbicidal rate of 70% or more and less than 90%)
[14]
  herbicidal effect rating, R: persian speedwell: 5 (Herbicidal rate of 90% or more (almost completely withered))
[15]
  herbicidal effect grade, J: blackgrass: 3 (Herbicidal rate of 40% or more and less than 70%)
[16]
  herbicidal effect rating, H: barnyard grass: 0 (Herbicidal rate of 5% or less (almost no effect))

## Cc1cc(-c2sc3ccccc3c2-c2c(O)c(C)nn(C)c2=O)ccc1F [1-051]
[1]
  herbicidal effect grade, I: wild oat: 3 (Herbicidal rate of 40% or more and less than 70%)
[2]
  Herbicidal effect on A: late watergrass (grade 0-5): 4 (Herbicidal rate of 70% or more and less than 90%)
[3]
  herbicidal effect on H (barnyard grass), rating 0-5: 4 (Herbicidal rate of 70% or more and less than 90%)
[4]
  herbicidal effect grade, F: southern crabgrass: 3 (Herbicidal rate of 40% or more and less than 70%)
[5]
  herbicidal effect on E (rice flat sedge), rating 0-5: 5 (Herbicidal rate of 90% or more (almost completely withered))
[6]
  Herbicidal effect on C: oval-leafed pondweed (grade 0-5): 0 (Herbicidal rate of 5% or less (almost no effect))
[7]
  herbicidal effect grade, R: persian speedwell: 5 (Herbicidal rate of 90% or more (almost completely withered))
[8]
  herbicidal effect rating, B: Japanese bulrush: 0 (Herbicidal rate of 5% or less (almost no effect))
[9]
  herbicidal effect rating, N: redroot pigweed: 4 (Herbicidal rate of 70% or more and less than 90%)
[10]
  herbicidal effect rating, P: chickweed: 3 (Herbicidal rate of 40% or more and less than 70%)
[11]
  herbicidal effect rating, M: velvetleaf: 4 (Herbicidal rate of 70% or more and less than 90%)
[12]
  herbicidal effect grade, H: barnyard grass: 3 (Herbicidal rate of 40% or more and less than 70%)
[13]
  herbicidal effect rating, G: green foxtail: 5 (Herbicidal rate of 90% or more (almost completely withered))
[14]
  herbicidal effect rating, R: persian speedwell: 4 (Herbicidal rate of 70% or more and less than 90%)
[15]
  herbicidal effect grade, J: blackgrass: 0 (Herbicidal rate of 5% or less (almost no effect))
[16]
  herbicidal effect rating, H: barnyard grass: 3 (Herbicidal rate of 40% or more and less than 70%)

## CCOc1cc(F)ccc1-c1sc2ccccc2c1-c1c(O)c(C)nn(C)c1=O [1-061]
[1]
  herbicidal effect grade, I: wild oat: 5 (Herbicidal rate of 90% or more (almost completely withered))
[2]
  Herbicidal effect on A: late watergrass (grade 0-5): 3 (Herbicidal rate of 40% or more and less than 70%)
[3]
  herbicidal effect on H (barnyard grass), rating 0-5: 5 (Herbicidal rate of 90% or more (almost completely withered))
[4]
  herbicidal effect grade, F: southern crabgrass: 5 (Herbicidal rate of 90% or more (almost completely withered))
[5]
  herbicidal effect on E (rice flat sedge), rating 0-5: 5 (Herbicidal rate of 90% or more (almost completely withered))
[6]
  Herbicidal effect on C: oval-leafed pondweed (grade 0-5): 3 (Herbicidal rate of 40% or more and less than 70%)
[7]
  herbicidal effect grade, R: persian speedwell: 5 (Herbicidal rate of 90% or more (almost completely withered))
[8]
  herbicidal effect rating, B: Japanese bulrush: 3 (Herbicidal rate of 40% or more and less than 70%)
[9]
  herbicidal effect rating, N: redroot pigweed: 4 (Herbicidal rate of 70% or more and less than 90%)
[10]
  herbicidal effect rating, P: chickweed: 5 (Herbicidal rate of 90% or more (almost completely withered))
[11]
  herbicidal effect rating, M: velvetleaf: 0 (Herbicidal rate of 5% or less (almost no effect))
[12]
  herbicidal effect grade, H: barnyard grass: 5 (Herbicidal rate of 90% or more (almost completely withered))
[13]
  herbicidal effect rating, G: green foxtail: 5 (Herbicidal rate of 90% or more (almost completely withered))
[14]
  herbicidal effect rating, R: persian speedwell: 5 (Herbicidal rate of 90% or more (almost completely withered))
[15]
  herbicidal effect grade, J: blackgrass: 5 (Herbicidal rate of 90% or more (almost completely withered))
[16]
  herbicidal effect rating, H: barnyard grass: 4 (Herbicidal rate of 70% or more and less than 90%)
